This is an account of results in US5686494A, “Pharmaceutical preparations for ameliorating epigastric functional disorders” (Daiichi Pharmaceutical Co., Ltd., priority 1993, dated 1997).

Assay [1] concerns patients diagnosed as chronic gastritis and the like without morphological changes in the stomach. Description: Effect on gastric emptying in patients (acetaminophen method). The format is in vivo, human. From the text:
(§1) Effects on subjective symptoms and gastric emptying in patients
(§2) A total of 8 patients diagnosed as chronic gastritis and the like without morphological changes in the stomach were examined in this test, each patient complaining of medium or more intense chronic epigastric fullness, having other NUD (or epigastric dysfunction complaints) such as gastric oppression, nausea, vomiting, anorexia, heartburn and the like and also showing delayed gastric emptying.
(§3) Each patient was allowed to take 2 tablets of the test pharmaceutical preparation of Example 1 three times a day 15 to 30 minutes before morning, noon and evening meals (600 mg of compound A/day), and the administration was continued for 2 weeks. Subjective symptoms (Table 3) were checked before and 2 weeks after the administration and gastric emptying (Table 4) was checked before and 2 weeks after the administration.
Gastric emptying was examined in accordance with the acetaminophen method of Heading et al (cf. Br. J. Pharmacol. 47 415-421 (1973)). That is, each patient after overnight fasting with no drug administration was allowed to take a test food (200 ml of a liquid natural food OKUNOS-A, thoroughly mixed with 1.5 g of acetaminophen) at 9 a.m. and then to take a seat without eating and drinking until completion of the examination. Heparinized blood samples were collected before and 45 minutes after the administration. Thereafter, serum was separated from each sample to measure serum acetaminophen concentration by a high performance liquid chromatography (HPLC).

The subject of assay [2] is dopamine-induced delayed gastric emptying model. Kind of assay: Effect on gastric emptying in dopamine-induced delayed gastric emptying model (phenol red method). The format is in vivo, male Slc:ddY mice. Particulars: for Gastric emptying rate (%): 90 min before phenol red, dopamine 30 mg/kg i.p. 5 min before, measured 30 min after phenol red. Here is the method:
Effect on gastric emptying in dopamine-induced delayed gastric emptying model (phenol red method) After overnight fasting, male Slc:ddY mice of 6 to 7 weeks of age (body weight, 28 to 32 g; SLC, Shizuoka, Japan) were divided into 7 groups, namely a group in which dopamine was administered with no drug treatment (No. 1 in Table 2), groups in which dopamine was administered after administration of the compound A (Nos. 2 to 5), a group in which dopamine was administered after administration of cisapride as a positive control (No. 6) and a group in which dopamine and drug treatments were not made (No. 7). Seven mice were used in each group. First, 90 minutes before the administration of phenol red, 0.01 mg/kg, 0.03 mg/kg, 0.1 mg/kg or 0.3 mg/kg of the compound A suspended in 0.5% carboxymethylcellulose was orally administered to mice of the compound A administration groups (Nos. 2 to 5), 3 mg/kg of cisapride suspended in 0.5% carboxymethylcellulose was orally administered to mice as the positive control drug administration group (No. 6) and 0.5% carboxymethylcellulose was orally administered to mice as the dopamine administration group with no drug treatment (No. 1) and the no drug and no dopamine treatment group (No. 7). Next, 5 minutes before the phenol red administration, 30 mg/kg of dopamine which has been dissolved in distilled water and then diluted with physiological saline was intraperitoneally administered to mice of each group. Thereafter, phenol red dissolved in 1% methylcellulose was orally administered with a dose of 0.2 mg/0.3 ml/mouse. […] mouse/X)]×100 (X is an average value of the recovered phenol red remained in the stomach excised from each mouse sacrificed just after the phenol red administration)

Assay [3] concerns patients diagnosed as chronic gastritis and the like without morphological changes in the stomach. Kind of assay: Effects on subjective symptoms in patients. The class given is in vivo, human.
Source text: as §1, §2, §3
Subjective symptoms were examined by checking existence of the symptoms before and 2 weeks after the administration.

For assay [4], the system named is cholecystokinin (CCK)-induced delayed gastric emptying model. Kind of assay: Effect on gastric emptying in cholecystokinin (CCK)-induced delayed gastric emptying model (Phenol red method). To be noted: for Gastric emptying rate (%): 90 min before phenol red, CCK 5 μg/kg i.p. 5 min before, measured 30 min after phenol red. The format is in vivo, male Slc:ddY mice. Here is the method:
Effect on gastric emptying in cholecystokinin (CCK)-induced delayed gastric emptying model (Phenol red method)
After overnight fasting, male Slc:ddY mice of 6 to 7 weeks of age (body weight, 20 to 30 g; SLC, Shizuoka, Japan) were divided into six groups: a group in which cholecystokinin was administered with no drug treatment (No. 1 in Table 1), groups in which cholecystokinin was administered after administration of compound A (Nos. 2 to 4), a group in which cholecystokinin was administered after administration of cisapride as a positive control (No. 5) and a group in which cholecystokinin and drug treatments were not made (No. 6). Five to 15 mice were used in each group.
First, 90 minutes before the administration of phenol red, 1 mg/kg, 3 mg/kg or 10 mg/kg of compound A suspended in 0.5% carboxymethylcellulose was orally administered to mice of the compound A administration groups, respectively, (Nos. 2 to 4), 3 mg/kg of cisapride suspended in 0.5% carboxymethylcellulose was orally administered to mice as the positive control drug administration group (No. 5) and 0.5% carboxymethylcellulose was orally administered to mice of the […] (No. 1) and the no drug and no cholecystokinin treatment group (No. 6). Next, 5 minutes before the phenol red administration, 5 μg/kg of cholecystokinin (CCK8s, manufactured by Sigma) which had been dissolved in distilled water and then diluted with physiological saline was intraperitoneally administered to mice of each group. Thereafter, phenol red dissolved in 1% methylcellulose was orally administered with a dose of 0.2 mg/0.3 ml/mouse. After 30 minutes of the phenol red administration, each mouse was sacrificed by cervical dislocation to excise the stomach, and the amount of phenol red remaining in the excised stomach was measured to calculate the gastric emptying rate (%) by the following formula.
Gastric emptying rate (%)=[1-(phenol red recovered from drug-applied
(X is the average value of the recovered phenol red remaining in the stomach excised from each mouse sacrificed just after the phenol red administration)

Setting [5] is: 2 tablets of Example 1 three times a day (600 mg of compound A/day), 2 weeks.

Where “and” joins values, the source holds several entries; their conditions need not be identical. Identical values can stand only once. Ends that are not written are not given here. * marks the point of attachment. SO3H = O=S(=O)(O)*

For `CNC(=O)c1cccc(NCC(=O)NCCc2ccc(OC)c(OC)c2)c1` [Compound A, 3-[[[2-(3,4-dimethoxyphenyl)ethyl]carbamoyl]methyl]amino-N-methylbenzamide], the “Serum acetaminophen concentration, After administration” value in assay [1] (2 weeks after start, 600 mg of compound A/day oral, individual patients No. 1 to 8 in order, 45 minutes after 1.5 g acetaminophen in test food) was 7.6 µg/mL and 10.1 µg/mL and 12.8 µg/mL and 7.8 µg/mL and 7.3 µg/mL and 8.1 µg/mL and 8.5 µg/mL and 7.1 µg/mL. Moreover, in assay [1] (2 weeks, 600 mg of compound A/day oral), the “amelioration of gastric emptying (cases)” value was 7 of the 8. Also, the “Serum acetaminophen concentration, Before administration” value in assay [1] (baseline before drug administration, individual patients No. 1 to 8 in order, 45 minutes after 1.5 g acetaminophen in test food) was 7.6 µg/mL and 8.4 µg/mL and 8.0 µg/mL and 6.1 µg/mL and 6.9 µg/mL and 6.6 µg/mL and 5.2 µg/mL and 4.6 µg/mL. Moreover, the “Gastric emptying rate (%)” value in assay [2] (0.01 mg/kg oral) is given as 6.9 ± 4.7%; in assay [2] (0.03 mg/kg oral), 21.2 ± 6.1%; in assay [2] (0.1 mg/kg oral), 18.1 ± 8.3%; in assay [2] (0.3 mg/kg oral), 36.2 ± 10.2%; in assay [4] (1 mg/kg oral) it was 24.8 ± 2.1%; in assay [4] (3 mg/kg oral), 27.6 ± 4.2%. Further, in assay [4] (10 mg/kg oral), the “Gastric emptying rate (%)” value was 40.5 ± 6.9%. The “gastric emptying rate improved” value in assay [2] (0.01 mg/kg, 0.03 mg/kg, 0.1 mg/kg or 0.3 mg/kg oral, vs dopamine-treated mice with reduced gastric emptying rate) is listed as “improved”; in assay [4] (1 mg/kg, 3 mg/kg or 10 mg/kg oral, vs CCK-treated mice with reduced gastric emptying rate), “improved in a dose dependent fashion”. The “Symptom-disappeared cases/tested cases: Abdominal distension” value in assay [3] (setting [5]) is reported as 7/7. Moreover, the “Symptom-disappeared cases/tested cases: Anorexia” value in assay [3] (setting [5]) was 3/3. The “Symptom-disappeared cases/tested cases: Epigastralgia” value in assay [3] (setting [5]) is listed as 4/4. Further, in assay [3] (setting [5]), the “Symptom-disappeared cases/tested cases: Gastric disphoria” value was 4/4. For the same compound, in assay [3] (setting [5]), the “Symptom-disappeared cases/tested cases: Heartburn” value is reported as 2/2. Further, the “Symptom-disappeared cases/tested cases: Nausea” value in assay [3] (setting [5]) is reported as 4/4. Besides, the “Symptom-disappeared cases/tested cases: Vomiting” value in assay [3] (setting [5]) is reported as 3/3. Also, the “disappearance of subjective symptoms” value in assay [3] (patients No. 1 to No. 8, after 2 weeks, 600 mg/day oral) is given as “complete disappearance of subjective symptoms”.

Regarding “cholecystokinin (DY(SO3H)MGWMDF; not fully specified (C-terminus); ends and bridges not checked; UniProt P06307 96-103, looked up) [cholecystokinin (CCK8s, manufactured by Sigma), reference compound]”, in assay [4] (5 μg/kg cholecystokinin intraperitoneal, no drug), the “gastric emptying rate reduced to (fraction)” value is 1/3.

Consider `COc1cc(N)c(Cl)cc1C(=O)NC1CCN(CCCOc2ccc(F)cc2)CC1OC` (stereo not drawn) [Cisapride, cisapride, reference compound], for which the “Gastric emptying rate (%)” value in assay [2] (3 mg/kg oral) is on record as 23.4 ± 6.6%; in assay [4] (positive control, 3 mg/kg oral) it was 36.7 ± 6.8%.

On to `NCCc1ccc(O)c(O)c1` [dopamine, reference compound], for which the “gastric emptying rate reduced to (fraction)” value in assay [2] (30 mg/kg dopamine intraperitoneal, no drug) is recorded as 1/20.
